Assay results as given in US8759361B2, “2-phenoxy pyrimidinone analogues” (Neurogen Corporation, priority 2006, dated 2014).
pIC50, pKi: −log10 of the molar value.

How the values were obtained:
human capsaicin receptor = biological target: T1, human capsaicin receptor (Homo sapiens, UniProt Q8NER1); test: Calcium mobilization assay, determination of antagonist activity (Example 6); format: cell-based; details: cells expressing human capsaicin receptor, capsaicin-induced fluorescence response; read-out: IC50
T1 construct: expressed in transfected cells
Description: A cDNA encoding full length human capsaicin receptor (SEQ ID NO:1, 2 or 3 of U.S. Pat. No. 6,482,611) is subcloned in the plasmid pBK-CMV (Stratagene, La Jolla, Calif.) for recombinant expression in mammalian cells.
Human embryonic kidney (HEK293) cells are transfected with the pBK-CMV expression construct encoding the full length human capsaicin receptor using standard methods. The transfected cells are selected for two weeks in media containing G418 (400 μg/ml) to obtain a pool of stably transfected cells. Independent clones are isolated from this pool by limiting dilution to obtain clonal stable cell lines for use in subsequent experiments.
Cells transfected with expression plasmids (as described in Example 4) and thereby expressing human capsaicin receptor are seeded and grown to 70-90% confluency in FALCON black-walled, clear-bottomed 96-well plates (#3904, BECTON-DICKINSON, Franklin Lakes, N.J.). The culture medium is emptied from the 96 well plates and FLUO-3 AM calcium sensitive dye (Molecular Probes, Eugene, Oreg.) is added to each well (dye solution: 1 mg FLUO-3 AM, 440 μL DMSO and 440 μl 20% pluronic acid in DMSO, diluted 1:250 in Krebs-Ringer HEPES (KRH) buffer (25 mM HEPES, 5 mM KCl, 0.96 mM NaH2PO4, 1 mM MgSO4, 2 mM CaCl2, 5 mM glucose, 1 mM probenecid, pH 7.4), 50 μl diluted solution per well). Plates are covered with aluminum foil and incubated at 37° C. for 1-2 hours in an environment containing 5% CO2. After the incubation, the dye is emptied from the plates, and the cells are washed once with KRH buffer, and resuspended in KRH buffer.
To measure the ability of a test compound to agonize or antagonize a calcium mobilization response in cells expressing capsaicin receptors to capsaicin or other vanilloid agonist, the EC50 of the agonist capsaicin is first determined. An additional 20 μl of KRH buffer and 1 μl DMSO is added to each well of cells, prepared as described above. 100 μl capsaicin in KRH buffer is automatically transferred by the FLIPR instrument to each well. Capsaicin-induced calcium mobilization is monitored using either FLUOROSKAN ASCENT (Labsystems; Franklin, Mass.) or FLIPR (fluorometric imaging plate reader system; Molecular Devices, Sunnyvale, Calif.) instruments. Data obtained between 30 and 60 seconds after agonist application are used to generate an 8-point concentration response curve, with final capsaicin concentrations of 1 nM to 3 μM. KALEIDAGRAPH software (Synergy Software, Reading, Pa.) is used to fit the data to the equation: y=a*(1/(1+(b/x)^c)) to determine the 50% excitatory concentration (EC50) for the response. In this equation, y is the maximum fluorescence signal, x is the concentration of the agonist or antagonist (in this case, capsaicin), a is the Emax, b corresponds to the EC50 value and c is the Hill coefficient. Determination of Agonist Activity
Test compounds are dissolved in DMSO, diluted in 20 μl KRH buffer so that the final concentration of test compounds in the assay well is between 1 μM and 5 μM, and added to cells prepared as described above. The 96 well plates containing prepared cells and test compounds are incubated in the dark, at room temperature for 0.5 to 6 hours. It is important that the incubation not continue beyond 6 hours. Just prior to determining the fluorescence response, 100 μl capsaicin in KRH buffer at twice the EC50 concentration determined as described above is automatically added by the FLIPR instrument to each well of the 96 well plate for a final sample volume of 200 μl and a final capsaicin concentration equal to the EC50. The final concentration of test compounds in the assay wells is between 1 μM and 5 μM. […] The concentration of antagonist required to provide a 50% decrease, relative to the response observed in the presence of capsaicin and without antagonist, is the IC50 for the antagonist, and is preferably below 1 micromolar, 100 nanomolar, 10 nanomolar or 1 nanomolar.

VR = VR (Homo sapiens, UniProt Q8NER1); details: binds to VR with no more than moderate affinity; cited from earlier work
VR, sequence (Q8NER1 whole entry): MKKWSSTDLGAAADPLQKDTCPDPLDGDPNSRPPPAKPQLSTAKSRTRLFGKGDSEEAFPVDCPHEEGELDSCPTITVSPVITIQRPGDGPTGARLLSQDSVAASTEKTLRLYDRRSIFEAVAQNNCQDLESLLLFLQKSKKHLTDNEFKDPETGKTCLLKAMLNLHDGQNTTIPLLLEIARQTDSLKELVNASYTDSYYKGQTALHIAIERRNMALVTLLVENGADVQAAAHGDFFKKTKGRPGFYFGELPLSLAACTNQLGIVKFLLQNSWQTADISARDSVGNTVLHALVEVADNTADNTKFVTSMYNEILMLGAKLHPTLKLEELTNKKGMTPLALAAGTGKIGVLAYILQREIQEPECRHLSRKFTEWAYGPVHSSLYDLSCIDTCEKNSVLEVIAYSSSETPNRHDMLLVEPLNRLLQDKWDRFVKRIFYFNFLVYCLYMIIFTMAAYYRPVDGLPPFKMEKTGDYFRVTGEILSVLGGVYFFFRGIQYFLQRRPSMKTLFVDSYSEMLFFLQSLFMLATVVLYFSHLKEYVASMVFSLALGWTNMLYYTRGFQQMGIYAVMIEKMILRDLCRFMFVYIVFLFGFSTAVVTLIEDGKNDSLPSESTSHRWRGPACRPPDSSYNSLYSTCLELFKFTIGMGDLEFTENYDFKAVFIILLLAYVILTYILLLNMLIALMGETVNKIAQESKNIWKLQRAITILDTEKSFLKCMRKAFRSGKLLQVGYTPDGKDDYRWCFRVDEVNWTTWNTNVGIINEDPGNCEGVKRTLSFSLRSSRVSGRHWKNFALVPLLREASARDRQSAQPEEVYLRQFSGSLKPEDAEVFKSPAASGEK

T1 sequence (Q8NER1 whole entry): as above

Compound	pIC50 (human capsaicin receptor)	pKi (VR)
O=c1c2ncsc2nc(Oc2cccc(C(F)(F)F)c2)n1-c1ccc(F)cc1 [Compound 46, 6-(4-fluorophenyl)-5-(3-(trifluoromethyl)phenoxy)thiazolo[5,4-d]pyrimidin-7(6H)-one]	≥ 7.00	
Cn1cnc2c(=O)n(-c3ccc(F)cc3)c(Oc3cccc(C(F)(F)F)c3)nc21 [Compound 48, 1-(4-fluorophenyl)-9-methyl-2-[3-(trifluoromethyl)phenoxy]-1,9-dihydro-6H-purin-6-one]	≥ 7.00	
Cn1cnc2c(=O)n(-c3ccc(F)cc3)c(Oc3cc(F)cc(C(F)(F)F)c3)nc21 [Compound 49, 1-(4-fluorophenyl)-2-[3-fluoro-5-(trifluoromethyl)phenoxy]-9-methyl-1,9-dihydro-6H-purin-6-one]	≥ 7.00	
Cl.Cl.Cl.Cl.Cl.Cl.N.N.N.N.N.N.N.N.N.N.N.N.N.N.[O-2].[O-2].[Ru+3].[Ru+3].[Ru+4] [ruthenium red]		≤ 3.85

Second part, led by results:

pIC50 (human capsaicin receptor)	Compound	pKi (VR)
≥ 7.00	Cc1csc2c(=O)n(-c3ccc(Cl)cc3)c(Oc3ccc(F)c(F)c3F)nc12 [Compound 50, 3-(4-chlorophenyl)-7-methyl-2-(2,3,4-trifluorophenoxy)thieno[3,2-d]pyrimidin-4(3H)-one]	
≥ 7.00	Cc1csc2c(=O)n(-c3ccc(Cl)cc3)c(Oc3ccc(Cl)cc3F)nc12 [Compound 51, 2-(4-chloro-2-fluorophenoxy)-3-(4-chlorophenyl)-7-methylthieno[3,2-d]pyrimidin-4(3H)-one]	
≥ 7.00	Cc1csc2c(=O)n(-c3ccc(Cl)cc3)c(Oc3ccc(F)cc3F)nc12 [Compound 52, 3-(4-chlorophenyl)-2-(2,4-difluorophenoxy)-7-methylthieno[3,2-d]pyrimidin-4(3H)-one]	
≥ 7.00	Cc1csc2c(=O)n(-c3ccc(F)cc3)c(Oc3ccc(F)c(F)c3F)nc12 [Compound 53, 3-(4-fluorophenyl)-7-methyl-2-(2,3,4-trifluorophenoxy)thieno[3,2-d]pyrimidin-4(3H)-one]	
≥ 7.00	Cc1csc2c(=O)n(-c3ccc(F)cc3)c(Oc3ccc(Cl)cc3F)nc12 [Compound 54, 2-(4-chloro-2-fluorophenoxy)-3-(4-fluorophenyl)-7-methylthieno[3,2-d]pyrimidin-4(3H)-one]	
≥ 7.00	Cc1csc2c(=O)n(-c3ccc(F)cc3)c(Oc3c(F)ccc(F)c3F)nc12 [Compound 55, 3-(4-fluorophenyl)-7-methyl-2-(2,3,6-trifluorophenoxy)thieno[3,2-d]pyrimidin-4(3H)-one]	
≥ 7.00	Cc1cccc(Oc2nc3c(ncn3C)c(=O)n2-c2ccc(F)cc2)c1C [Compound 63, 2-(2,3-dimethylphenoxy)-1-(4-fluorophenyl)-9-methyl-1,9-dihydro-6H-purin-6-one]	
